# Laboratory results as given in patent US8008337B2, “Azabicyclo[3.2.0] hept-3-yl compounds, a process for their preparation and pharmaceutical compositions containing them” (Les Laboratoires Servier, priority 2009, dated 2011).
# Tests used:
# Format in all cases: in vivo
# NMRI mouse = experiment: Tail suspension test in the NMRI mouse; settings: 10 mg/kg IP, 24 hours and 30 minutes before suspension, 6 minutes
# Procedure: The tail suspension test in the mouse (Porsolt et al., Arch. Int. Pharmacodyn., 1987, 288, 11) enables detection of psychopharmacological properties of compounds. NMRI mice are suspended by the tail, with the aid of a piece of adhesive tape, from a hook for 6 minutes: the immobility time is measured automatically with the aid of movement sensors. The animals are treated, by the intraperitoneal route, with the compounds of the invention or their carriers 24 hours and 30 minutes before they are suspended.
# [1] = system: extracellular levels of dopamine; experiment: Intracerebral microdialysis in the striatum of the awake rat; settings: 10 mg/kg i.p., striatum microdialysate, awake Wistar rat
# Procedure: Intracerebral microdialysis in the awake rat makes it possible to assess the influence of a compound on the release of neurotransmitters such as dopamine into the extracellular space of small cerebral structures, especially the striatum.
# This technique is carried out in two steps: a surgery step (stereotaxic implantation of a cannula-guide carried out on the anaesthetised animal) and a microdialysis step carried out on the awake animal (collection of samples of extracellular cerebral liquid). Male rats of the Wistar strain (280-320 g) are anaesthetised and placed in a stereotaxic apparatus. A guide cannula is implanted in the striatum of the animals according to the following stereotaxic coordinates: antero-posteriority −1 mm, laterality +2.8 mm, depth −3 mm, relative to the bregma, according to the atlas of Paxinos and Watson (1996). One week after the surgery, a microdialysis probe (CMA11, length 4 mm, Phymep) is inserted into the guide cannula. The animals are placed in experimentation cages and the to probe inlet is connected to a pump continuously perfusing artificial cerebrospinal fluid (flow rate 1 μl/min). […] The extracellular levels of dopamine are assessed in each microdialysate using a liquid chromatographic technique coupled with electrochemical detection. The values are expressed as the mean±SEM relative to the baseline values (reference 100%).
# awake Wistar rat = experiment: Electroencephalogram recordings in the awake Wistar rat; settings: 3 mg/kg IP, cortical EEG
# Procedure: Electrodes are chronically implanted in adult male Wistar rats, being located at the surface of the frontal and parietal cortex. Cortical electroencephalogram (EEG) recordings are made in the rats placed in cages in a sound-proofed room. The compounds and carriers are administered in randomised manner by the intraperitoneal route at 10 o'clock on the same days with a minimum of 3 days between each administration, allowing each rat to be used as its own control. The absolute power of the slow delta activities (1-4 Hz), which predominate during slow sleep and disappear during wakefulness and paradoxical sleep, is averaged over successive periods of 30 minutes. Over 30 minutes, high and low values for the power of the slow delta activities are signs of […], respectively.
# Wistar rat [2] = experiment: Interaction with barbital in the Wistar rat; settings: 10 mg/kg PO 30 minutes before barbital 170 mg/kg IP, sleep measured for 4 hours
# Procedure: The objective of this test is to determine the anti-sedative, awakening and/or anti-hypnotic properties of the compounds of the present invention. The rats are placed in individual cages and are given an injection of barbital (170 mg/kg IP). The duration of sleep is then measured for 4 hours after the injection of barbital, determined on the basis of loss of the righting reflex. The compounds of the invention or their carriers are administered by the oral route 30 minutes before the administration of barbital.
# Wistar rat [3] = experiment: Social recognition in the Wistar rat; settings: second encounter after 2 hours
# From the text: Initially described in 1982 (J. Comp. Physiol., 1982, 96, 1000-1006), the social recognition test has subsequently been proposed by various authors (Psychopharmacology, 1987, 91, 363-368; Psychopharmacology, 1989, 97, 262-268) for studying the mnemocognitive effects of new compounds. The test is based on the natural expression of the olfactory memory of the rat and its natural tendency to forget and allows evaluation of memorisation, by recognition of a young congeneric animal, by an adult rat. A young rat (21 days), taken at random, is placed for 5 minutes in the cage housing an adult rat. With the aid of a video device, the experimenter observes the social recognition behaviour of the adult rat and measures its overall duration. The young rat is then removed from the adult rat's cage and is placed in its own cage until the second introduction. The adult rat is given the compound under test by the intraperitoneal route and, after 2 hours, is again brought into the presence (5 minutes) of the young rat. The social recognition behaviour is then observed again and its duration measured. The assessment criterion is the difference (T2−T1), expressed in seconds, between the “recognition” times of the 2 encounters.
# Sprague-Dawley rat = experiment: Object recognition in the Sprague-Dawley rat; settings: 3 mg/kg PO 60 minutes before each session, second session 24 hours later
# From the text: The object recognition test in the Sprague-Dawley rat (Behav. Brain Res., 1988, 31, 47-59) is based on the spontaneous exploratory activity of the animal and has the characteristics of episodic memory in humans. This memory test is sensitive to ageing (Eur. J. Pharmacol., 1997, 325, 173-180) and to cholinergic dysfunctions (Pharm. Biochem. Behav. 1996, 53(2), 277-283) and is based on the differences in the exploration of 2 objects of fairly similar shape—one familiar, the other new. Prior to the test, the animals are habituated to the environment (an enclosure without an object). In the course of a first session, the rats are placed (3 minutes) in the enclosure, in which there are 2 identical objects. The duration of exploration is measured for each object. In the course of the second session (3 minutes), 24 hours later, 1 of the 2 objects is replaced by a new object. The duration of exploration is measured for each object. The assessment criterion is the difference, Delta, expressed in seconds, between the exploration times for the new object and for the familiar object in the course of the second session.
smiles,measurement,setting,value
"Cl.NC(=O)c1ccc(OCCCN2C[C@H]3CC[C@H]3C2)cc1 [Example 1, 4-{3-[(1R,5S)-3-Azabicyclo[3.2.0]hept-3-yl]-propoxy}benzamide hydrochloride]",increase in the immobility time,NMRI mouse,119%
same,increase in endogenous cerebral concentrations of dopamine (in comparison with basal values),[1],+123%
same,duration of reduction in power of the slow delta waves,awake Wistar rat,120 min
same,effect on power of the slow delta waves (1-4 Hz),awake Wistar rat,significant reduction
same,reduction of the duration of sleeping caused by barbital,Wistar rat [2],−81%
same,difference (T2−T1) between recognition times,Wistar rat [3]; 1 mg/kg IP,24 s
same,difference (T2−T1) between recognition times,Wistar rat [3]; 3 mg/kg IP,36 s
same,"difference, Delta, between exploration times for the new and the familiar object",Sprague-Dawley rat,~8 s
